Measurements as given in patent publication US5493007A, “Platelet aggregation inhibitors having high specificity for GPIIBIIIA” (Genentech, Inc., priority 1994, dated 1996).
Values joined by “and” are separate entries in the source; they are usually repeats but may differ in a detail not shown here. Equal entries are not always repeated. Where two headings read alike, the source gives them in different places. Each block holds one molecule with its values, some of them ahead of it. *1 amine or outer side, *2 acyl side, *3 side chain or, on linkers, in order; H or OH if unused. Where a SMILES comes first, the peptide text is derived from it. Bridges are numbered along the chain shown (N, C = ends). [ ]: non-standard residue; d: D form. The star is where a group is joined. Ethylenediamine = C(CN[*:2])N[*:1]; Aad = N[C@@H](CCCC(=O)O)C(=O)O; Pen = CC(C)(S)[C@H](N)C(=O)O; dOrn = NCCC[C@@H](N)C(=O)O; NH(CH2)5NH2 = NCCCCCN*; NH(CH2)4NH2 = NCCCCN*; NH(CH2)3NH2 = NCCCN*; Ava = NCCCCC(=O)O

Tests used:
[1] = molecular target: T1, Vitronectin Receptor (αvβ3) (Homo sapiens, UniProt P05106+P06756); test: Human Vitronectin-Vitronectin Receptor (αvβ3) ELISA Assay; type: binding; details: purified human αvβ3, vitronectin-coated plates; read-out: ELISA IC50 Vitronectin VnR
T1 construct: Human vitronection receptor (VnR) is purified from human placenta; from tissue; host or cells: human placenta
T1 sequence (P06756 31-889 limits assumed): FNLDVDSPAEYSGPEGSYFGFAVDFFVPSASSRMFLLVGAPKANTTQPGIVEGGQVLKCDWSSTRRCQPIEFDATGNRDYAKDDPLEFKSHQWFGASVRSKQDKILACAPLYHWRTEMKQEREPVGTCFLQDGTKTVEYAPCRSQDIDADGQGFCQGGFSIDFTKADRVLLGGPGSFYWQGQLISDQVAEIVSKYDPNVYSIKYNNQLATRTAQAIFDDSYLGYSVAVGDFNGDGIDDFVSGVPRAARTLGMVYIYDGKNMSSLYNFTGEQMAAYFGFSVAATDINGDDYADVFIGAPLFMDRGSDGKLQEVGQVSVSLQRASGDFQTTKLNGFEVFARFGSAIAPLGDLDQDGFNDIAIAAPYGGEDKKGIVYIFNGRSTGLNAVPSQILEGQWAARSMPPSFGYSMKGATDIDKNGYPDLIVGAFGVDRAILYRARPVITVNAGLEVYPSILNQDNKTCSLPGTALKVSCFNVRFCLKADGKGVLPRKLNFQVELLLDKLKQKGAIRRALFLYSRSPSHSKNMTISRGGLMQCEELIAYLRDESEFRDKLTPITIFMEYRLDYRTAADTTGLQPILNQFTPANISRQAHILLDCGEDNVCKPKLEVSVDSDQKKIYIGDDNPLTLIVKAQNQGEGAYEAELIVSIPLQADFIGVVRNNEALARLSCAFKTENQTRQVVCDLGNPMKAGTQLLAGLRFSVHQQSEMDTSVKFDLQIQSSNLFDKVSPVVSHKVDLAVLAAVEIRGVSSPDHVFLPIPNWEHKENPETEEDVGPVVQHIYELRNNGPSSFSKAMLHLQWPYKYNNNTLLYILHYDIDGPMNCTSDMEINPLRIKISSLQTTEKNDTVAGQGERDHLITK
T1 sequence (P06756 891-1048 partner limits assumed): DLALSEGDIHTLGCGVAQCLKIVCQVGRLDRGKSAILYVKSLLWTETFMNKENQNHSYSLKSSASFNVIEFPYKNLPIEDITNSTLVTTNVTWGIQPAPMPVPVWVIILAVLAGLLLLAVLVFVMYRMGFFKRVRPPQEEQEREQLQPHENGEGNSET
T1 sequence (P05106 27-788): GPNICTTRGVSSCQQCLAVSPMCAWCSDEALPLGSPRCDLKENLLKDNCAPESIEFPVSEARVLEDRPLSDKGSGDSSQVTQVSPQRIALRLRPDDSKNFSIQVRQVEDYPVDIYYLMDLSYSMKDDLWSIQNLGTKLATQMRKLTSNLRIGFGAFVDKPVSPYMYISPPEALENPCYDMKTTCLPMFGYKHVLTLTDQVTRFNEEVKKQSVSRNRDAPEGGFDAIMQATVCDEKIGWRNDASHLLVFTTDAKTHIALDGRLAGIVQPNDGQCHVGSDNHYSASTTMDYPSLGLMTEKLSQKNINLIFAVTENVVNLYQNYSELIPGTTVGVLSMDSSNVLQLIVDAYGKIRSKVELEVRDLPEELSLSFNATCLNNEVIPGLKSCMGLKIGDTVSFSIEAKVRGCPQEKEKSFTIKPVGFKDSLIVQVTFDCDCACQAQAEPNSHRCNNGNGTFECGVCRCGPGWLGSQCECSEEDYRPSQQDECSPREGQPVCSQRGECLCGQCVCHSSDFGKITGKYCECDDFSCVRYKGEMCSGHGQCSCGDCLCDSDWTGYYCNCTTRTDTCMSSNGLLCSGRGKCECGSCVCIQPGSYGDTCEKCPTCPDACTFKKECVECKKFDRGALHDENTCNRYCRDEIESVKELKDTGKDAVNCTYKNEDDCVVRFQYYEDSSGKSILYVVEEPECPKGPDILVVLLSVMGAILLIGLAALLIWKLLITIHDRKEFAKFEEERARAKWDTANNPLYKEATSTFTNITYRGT
Description: Human vitronectin (Vn) is isolated from human plasma and purified by affinity chromatography by the method of Yatohgo et. al., (Cell Structure and Function 13:281-292 [1988]).
Human vitronection receptor (VnR) is purified from human placenta by the method of Pytela et al., (Methods Enzymol., 144:475 [1987]). Alternatively the αvβ3 receptor can be purified from some cell lines (e.g., human embryonic kidney 293 cells) transfected with DNA sequences for both the αv and β3 subunits. The subunits are purified by employing octylglucoside extraction followed by Con-A, Heparin-Sepharose, and S-300 Chromatography.
Anti-GP IIb IIIa monoclonal antibodies specific for human GP IIIa are prepared by the method of Newman et al. (Blood, 65:227-232 [1985]), or a similar procedure. This mouse Mab is specific for the β3 subunit of the vitronectin receptor.
Rabbit Fab 2 anti-mouse Fc fragment horse radish peroxidase conjugate (anti-MuFc HRP) is obtained from PelFreeze (cat. no. 715305-1).
Maxisorp microtiter plates are coated with 2 μg/ml human vitronectin dissolved in PBS ([…]) and stored overnight at 4° C. The plates are washed two times with PBS-0.05% Tween-20 (wash buffer) and blocked by incubating with about 150 μl/well of assay buffer (1%, BSA [RIA grade or better] in 50 mM Tris-HCl, 100 mM NaCl, 1 mM MgCl2, CaCl2, MnCl2 pH 7.4) for 60 minutes. Dilutions of standards are prepared and putative inhibitors (Table 3) are dissolved in assay buffer. The blocked plates are emptied and 25 μl/well of inhibitor or standard solution is added to each well. Twenty-five μl of a 30 μg/ml solution of purified αvβ3 in assay buffer is pipetted into the coated plate. The final concentration of receptor in the assay well is about 15 μg/ml. The plate is incubated on a shaker for 60 minutes. Meanwhile, for each microtite plate, 6 ml buffer solution containing 1.5 μg/ml of mouse monoclonal antibody specific for β3 is prepared. To this solution is added μl of the secondary antibody, which is anti-mouse-Fc-HRP antibody conjugate. For example, for one plate, prepare 6 ml of a 1.5 μg/ml mouse Mab solution to which is added 1 μl of anti-mouse-Fc-HRP antibody stock, (this represents a 1:6000 dilution of the antibody - HRP conjugate). This mixture is allowed to incubate during the receptor-inhibitor incubation. The assay plates are washed 4 times with PBS-Tween and 50 μl/well of the antibody mixture is then pipetted into the plate for a 60 minute incubation. The plate is washed 4 times and the color reaction is developed with 50 μl/well of 0.67 mg/ml o-phenyldiamine in PBS containing 0.012% H2 O2. Alternatively, 16 mM citric acid, 50 mM Na2 PO4 at pH 5.0 can be used as a substrate buffer. The reaction is stopped with 50 μl/well 1M H2 SO4. The plates are read at 492-405 nm and the data analyzed by four-parameter fit.

[2] = molecular target: human platelet rich plasma (PRP) (Homo sapiens, UniProt P05106+P08514); test: In Vitro Human Platelet Aggregation Assay; type: cell-based
human platelet rich plasma (PRP), sequence (P08514 32-1039): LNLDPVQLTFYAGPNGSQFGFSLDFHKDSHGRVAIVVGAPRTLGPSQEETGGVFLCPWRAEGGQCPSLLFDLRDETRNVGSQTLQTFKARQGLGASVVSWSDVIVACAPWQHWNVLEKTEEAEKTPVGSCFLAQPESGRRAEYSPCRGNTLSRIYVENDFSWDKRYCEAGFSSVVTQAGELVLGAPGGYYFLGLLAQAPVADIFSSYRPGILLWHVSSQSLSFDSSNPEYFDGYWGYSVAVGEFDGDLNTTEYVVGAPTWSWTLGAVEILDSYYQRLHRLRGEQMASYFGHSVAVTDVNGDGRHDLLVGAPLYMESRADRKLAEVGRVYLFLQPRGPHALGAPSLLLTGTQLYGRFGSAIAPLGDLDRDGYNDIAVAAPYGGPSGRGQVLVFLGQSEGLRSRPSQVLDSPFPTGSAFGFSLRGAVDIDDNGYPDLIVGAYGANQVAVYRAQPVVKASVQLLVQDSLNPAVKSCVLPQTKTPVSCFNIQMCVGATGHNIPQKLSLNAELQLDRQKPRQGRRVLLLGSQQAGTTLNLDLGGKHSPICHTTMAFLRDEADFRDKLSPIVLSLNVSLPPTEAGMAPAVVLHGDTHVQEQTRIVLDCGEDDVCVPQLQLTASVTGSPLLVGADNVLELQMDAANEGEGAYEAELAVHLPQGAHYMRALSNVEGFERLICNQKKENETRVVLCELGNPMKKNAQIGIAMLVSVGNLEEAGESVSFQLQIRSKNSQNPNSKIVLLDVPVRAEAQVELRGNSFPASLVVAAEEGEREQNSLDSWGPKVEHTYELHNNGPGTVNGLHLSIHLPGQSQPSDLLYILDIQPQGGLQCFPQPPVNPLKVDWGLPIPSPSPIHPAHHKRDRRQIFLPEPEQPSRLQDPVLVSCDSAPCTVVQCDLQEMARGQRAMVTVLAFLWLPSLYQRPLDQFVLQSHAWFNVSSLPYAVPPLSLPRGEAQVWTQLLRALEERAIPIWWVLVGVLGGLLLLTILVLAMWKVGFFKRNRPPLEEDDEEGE
human platelet rich plasma (PRP), sequence (P05106 27-788): as the sequence (P05106 27-788) above
Description: Platelet aggregation assays are performed in human platelet rich plasma (PRP). Fifty milliliters of whole human blood (9 parts) is drawn on 3.6% sodium citrate (1 part) from a donor who has not taken aspirin or related medications for at least two weeks. The blood is centrifuged at 160×g for 10 minutes at 22° C. and allowed to stand for 5 minutes after which the PRP is decanted. Platelet poor plasma (PPP) is isolated from the remaining blood after centrifugation at 2000×g for 25 minutes. The platelet count of the PRP is diluted to about 300,000 platelets per microliter with PPP.
A 225 μl aliquot of PRP plus 25 μl of either a dilution of the test inhibitor sample or a control (PBS) is incubated for 5 minutes in a Chrono-log Whole Blood Aggregometer at 25° C. An aggregating agent (collagen, 1 μg/ml; U46619, 100 ng/ml; or ADP, 17 μM) is added and the transmission is recorded.

[3] = molecular target: GP IIb IIIa (Homo sapiens, UniProt P05106+P08514); test: GP IIb IIIa -von Willebrand factor (vWF) ELISA Assay; type: binding; parameters: GP IIb IIIa, prepared by the method of Fitzgerald et al; from tissue; details: GP IIb IIIa-coated plates, vWF; read-out: ELISA IC50 GPIIb IIIa vWF
GP IIb IIIa, sequence (P08514 32-887 limits assumed): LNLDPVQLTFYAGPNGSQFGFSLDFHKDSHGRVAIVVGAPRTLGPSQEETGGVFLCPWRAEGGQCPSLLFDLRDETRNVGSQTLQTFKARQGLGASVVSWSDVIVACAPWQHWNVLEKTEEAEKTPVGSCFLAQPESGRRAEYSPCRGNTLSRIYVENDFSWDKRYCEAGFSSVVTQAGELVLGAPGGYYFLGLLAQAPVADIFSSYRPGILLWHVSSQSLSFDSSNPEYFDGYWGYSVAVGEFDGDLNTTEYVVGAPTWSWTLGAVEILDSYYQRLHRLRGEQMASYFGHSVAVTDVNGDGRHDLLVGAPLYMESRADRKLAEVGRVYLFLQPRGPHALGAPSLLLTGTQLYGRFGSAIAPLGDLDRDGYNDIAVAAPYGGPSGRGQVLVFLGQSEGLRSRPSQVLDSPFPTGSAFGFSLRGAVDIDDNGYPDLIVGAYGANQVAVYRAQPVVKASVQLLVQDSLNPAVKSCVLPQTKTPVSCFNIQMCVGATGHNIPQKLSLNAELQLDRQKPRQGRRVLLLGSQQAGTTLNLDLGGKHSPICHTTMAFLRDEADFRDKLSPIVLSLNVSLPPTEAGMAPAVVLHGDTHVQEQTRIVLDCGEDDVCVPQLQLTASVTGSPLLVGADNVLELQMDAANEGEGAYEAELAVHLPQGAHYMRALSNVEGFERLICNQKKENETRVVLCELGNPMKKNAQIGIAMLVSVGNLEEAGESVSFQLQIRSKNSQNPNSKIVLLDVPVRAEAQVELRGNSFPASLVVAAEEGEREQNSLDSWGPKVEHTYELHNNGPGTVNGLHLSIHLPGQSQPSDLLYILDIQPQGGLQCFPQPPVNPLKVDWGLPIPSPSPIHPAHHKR
GP IIb IIIa, sequence (P08514 891-1039 partner limits assumed): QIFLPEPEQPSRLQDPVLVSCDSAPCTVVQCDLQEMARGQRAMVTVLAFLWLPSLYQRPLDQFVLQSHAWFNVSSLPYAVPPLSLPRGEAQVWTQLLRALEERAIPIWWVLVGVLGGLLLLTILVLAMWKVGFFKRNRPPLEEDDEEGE
GP IIb IIIa, sequence (P05106 27-788): as the sequence (P05106 27-788) above
Description: Microtiter plates are coated with 1.0 μg/ml GP IIb IIIa, prepared by the method of Fitzgerald et al., (Anal. Biochem. 151:169-177 [1985]) and allowed to incubate overnight in coat buffer. The plates are then washed three times in wash buffer (0.05% Tween 20 in PBS) and 150 μl of assay buffer is added and allowed to incubate for 1-2 hours at room temperature on plate shaker. The plates are washed three times and 50 μl of 2x inhibitor in assay buffer (Assay buffer: 0.5% BSA/50 mM Tris, 100 mM NaCl, 1.0 mM CaCl2, 1.0mM MgCl2, 1.0 mM MnCl2; coat buffer is the same but without BSA) is added. Fifty μl of 4.0 μg/ml vWF (prepared as described by Ledford et al., Thrombosis and Haemostasis, 64(4): 569-575 [1990]) in assay buffer is then added and allowed to incubate for one hour at room temperature on plate-shaker. The plates are washed three times and the antibody mixture is added (1:5000 of mouse anti-vWF and 1:5000 of rabbit-anti-mouse-Fc-HRP, both commercially available) in assay buffer and incubated for 1 hour at room temperature on plate-shaker. Plates are again washed three times and 100 μl of substrate solution (10 mg OPD, 6.5 μl H2 O2, 15 ml phosphate citrate buffer) is added and incubated at room temperature. The color change of OPD/H2 O2 reagent is read at 492 nm with a 405 nm reference wavelength on the filter photometer.

[4] = system: platelet rich plasma (PRP); test: Rabbit ex-vivo platelet aggregation (XPA), ADP-induced; type: in vivo; details: Example 1
Description: Catheters are flushed and locked after every sample.
[…] of PRP is placed in a disposable glass cuvette with a stir bar. The cuvette is placed in the temperature regulated light path of a light transmittance aggregometer (Chrono-log) and equilibrated to a 37° C. Baseline transmittance is recorded for 30 seconds, after which […] of ADP (1 mM) is added and the change in transmittance recorded. The maximum change from baseline (dT) is noted for each sample. The extent of inhibition of XPA that is produced by an inhibitor is calculated for each animal as follows: Mean dTs are calculated for the pre and post infusion values, and then, percent inhibition is calculated as (1-dt (post)/ddt (pre))×100.

[5] = human PRP, read-out: Human Platelet Aggregation IC50

SMILES: N=C(N)NCCC[C@@H]1NC(=O)[C@@H](Cc2ccc(O)cc2)NC(=O)C(CCCCN)SC[C@@H](C(=O)O)NC(=O)[C@H](CC(=O)O)NC(=O)CNC1=O (single isomer, unassigned) [9/11, cyclo-S-2-L-(6-aminocaproyl)-Lys--dTyr--Arg--Gly--Asp--Cys--OH]
IC50 [1]: 11.2 nM
IC50 [2, 5]: 3180 nM
IC50 [3]: 6.95 nM

IC50 [1]: 22 nM
IC50 [3]: 2.93 nM
SMILES: N=C(N)NCCC[C@@H]1NC(=O)[C@@H](Cc2ccc(O)cc2)NC(=O)CSC[C@@H](C(=O)N[C@H](CCCNC(=N)N)C(N)=O)NC(=O)[C@H](CC(=O)O)NC(=O)CNC1=O [7/2, cyclo-S-acetyl-dTyr--Arg--Gly--Asp--Cys--dArg--NH2] ({CH2CO}-[dY]RGDC[dR]-NH2; thioether N-5)

IC50 [1]: 17 nM
IC50 [3]: 1.56 nM
SMILES: N=C(N)NCCC[C@@H]1NC(=O)[C@@H](Cc2ccc(O)cc2)NC(=O)CSC[C@@H](C(=O)N[C@H](CCCCN)C(N)=O)NC(=O)[C@H](CC(=O)O)NC(=O)CNC1=O [7/4, cyclo-S-acetyl-dTyr--Arg--Gly--Asp--Cys--dLys--NH2] ({CH2CO}-[dY]RGDC[dK]-NH2; thioether N-5)

SMILES: N=C(N)NCCC[C@@H]1NC(=O)[C@@H](Cc2ccc(O)cc2)NC(=O)CSC[C@@H](C(=O)N[C@H](CCCN)C(N)=O)NC(=O)[C@H](CC(=O)O)NC(=O)CNC1=O [7/6, cyclo-S-acetyl-dTyr--Arg--Gly--Asp--Cys--dOrn--NH2] ({CH2CO}-[dY]RGDC[dOrn]-NH2; thioether N-5)
IC50 [1]: 55 nM
IC50 [2, 5]: 1180 nM
IC50 [3]: 1.92 nM

SMILES: N=C(N)NCCC[C@H](NC(=O)[C@H](Cc1ccc(O)cc1)NC(=O)[C@@H]1CSCC(=O)N[C@H](Cc2ccc(O)cc2)C(=O)N[C@@H](CCCNC(=N)N)C(=O)NCC(=O)N[C@@H](CC(=O)O)C(=O)N1)C(N)=O [7/7, cyclo-S-acetyl-dTyr--Arg--Gly--Asp--Cys--Tyr--Arg--NH2] ({CH2CO}-[dY]RGDCYR-NH2; thioether N-5)
Rabbit % P.A. Inhibition (ex vivo) [4]: 98%
IC50 [1]: 51 nM

SMILES: CC1(C)SCC(=O)N[C@H](Cc2ccc(O)cc2)C(=O)N[C@@H](CCCCN)C(=O)NCC(=O)N[C@@H](CC(=O)O)C(=O)N[C@@H]1C(=O)N[C@@H](CCCNC(=N)N)C(N)=O [7/16, cyclo-S-acetyl-dTyr--Lys--Gly--Asp--Pen--Arg--NH2] ({CH2CO}-[dY]KGD[Pen]R-NH2; thioether N-5)
IC50 [1]: 120000 nM
IC50 [2, 5]: 500 nM and 506 nM
IC50 [3]: 53.5 nM

SMILES: N=C(N)NCCC[C@@H]1NC(=O)[C@@H](Cc2ccc(O)cc2)NC(=O)CSC[C@@H](C(=O)N[C@@H](CCC(N)=O)C(N)=O)NC(=O)[C@H](CC(=O)O)NC(=O)CNC1=O [7/27, cyclo-S-acetyl-dTyr--Arg--Gly--Asp--Cys--Gln--NH2] ({CH2CO}-[dY]RGDCQ-NH2; thioether N-5)
Rabbit % P.A. Inhibition (ex vivo) [4]: 72% and 99%
IC50 [1]: 49 nM
IC50 [2, 5]: 1760 nM
platelet aggregation inhibition potency, result in words ([2]; human platelet aggregation in vitro): did not significantly improve potency

SMILES: N=C(N)NCCC[C@@H]1NC(=O)[C@@H](Cc2ccc(O)cc2)NC(=O)CSC[C@@H](C(=O)NCCCCC(=O)O)NC(=O)[C@H](CC(=O)O)NC(=O)CNC1=O [7/28, cyclo-S-(1-5)-dTyr--Arg--Gly--Asp--Cys--X (X = aminovaleric acid)] ({CH2CO}-[dY]RGDC[Ava]-OH; thioether N-5)
IC50 [1]: 650 nM
IC50 ([2]; read-out: platelet aggregation inhibition IC50): 52200 nM

SMILES: N=C(N)NCCC[C@@H]1NC(=O)[C@@H](Cc2ccc(O)cc2)NC(=O)CSC[C@@H](C(=O)NCCCCN)NC(=O)[C@H](CC(=O)O)NC(=O)CNC1=O [8/12, cyclo-S-acetyl-dTyr--Arg--Gly--Asp--Cys--NH--X (X = butylamine)] ({CH2CO}-[dY]RGDC-{NH(CH2)4NH2}; thioether N-5)
IC50 [1]: 70 nM
IC50 [2, 5]: 390 nM
IC50 [3]: 5.4 nM

SMILES: N=C(N)NCCC[C@@H]1NC(=O)[C@@H](Cc2ccc(O)cc2)NC(=O)CSC[C@@H](C(=O)NCCCCCN)NC(=O)[C@H](CC(=O)O)NC(=O)CNC1=O [8/13, cyclo-S-acetyl-dTyr--Arg--Gly--Asp--Cys--NH--X (X = pentylamine)] ({CH2CO}-[dY]RGDC-{NH(CH2)5NH2}; thioether N-5)
IC50 [1]: 32 nM
IC50 [2, 5]: 590 nM
IC50 [3]: 5.3 nM

SMILES: N=C(N)NCCC[C@@H]1NC(=O)[C@@H](Cc2ccc(O)cc2)NC(=O)CSC[C@@H](C(=O)NCCCN)NC(=O)[C@H](CC(=O)O)NC(=O)CNC1=O [8/22, cyclo-S-acetyl-dTyr--Arg--Gly--Asp--Cys--NH--X (X = propyl amine)] ({CH2CO}-[dY]RGDC-{NH(CH2)3NH2}; thioether N-5)
IC50 [1]: 36 nM
IC50 [2, 5]: 387 nM
IC50 [3]: 4.73 nM

SMILES: N=C(N)NCCC[C@@H]1NC(=O)[C@@H](Cc2ccc(O)cc2)NC(=O)CSC[C@@H](C(=O)NCCN)NC(=O)[C@H](CC(=O)O)NC(=O)CNC1=O [8/23, cyclo-S-acetyl-dTyr--Arg--Gly--Asp--Cys--NH--X (X = ethyl amine)] ({CH2CO}-[dY]RGDC-Ethylenediamine; thioether N-5)
IC50 [1]: 35 nM
IC50 [2, 5]: 470 nM
IC50 [3]: 4.67 nM

SMILES: N=C(N)NCCC[C@H](NC(=O)[C@@H]1CCCC(=O)N[C@H](Cc2ccc(O)cc2)C(=O)N[C@@H](CCCNC(=N)N)C(=O)NCC(=O)N[C@@H](CC(=O)O)C(=O)N1)C(N)=O [10/19, cyclo(1-5)dTyr--Arg--Gly--Asp--L-α-aminoadipic acid-Arg--NH2] ([dY]RGD[Aad]R-NH2; lactam N-5)
IC50 [1]: 32 nM
IC50 [2, 5]: 180 nM and 205 nM
IC50 [3]: 2.9 nM
